The target of one test is T1, human RIOK2 protein (Homo sapiens, UniProt Q9BVS4).
T1 construct: glutathione S-transferase is fused to N-terminal of a full-length human RIOK2 protein; GST (glutathione S-transferase) (N); purchased CarnaBio, Inc; host or cells: baculovirus-Sf21 cell expression system
Kind of test: RIOK2 autophosphorylation ELISA (Test Example 4). Particulars: for inhibition at 1 µM: read-out: Inhibitory activity at 1 μM (%); for inhibition at 10 µM: read-out: Inhibitory activity at 10 μM (%). The format is biochemical. How it is done:
A protein in which glutathione S-transferase is fused to N-terminal of a full-length human RIOK2 protein was used as a recombinant human RIOK2 protein. The protein was prepared using a baculovirus-Sf21 cell expression system from CarnaBio, Inc. A kinase reaction solution was prepared by mixing 25 μg/mL of the recombinant human RIOK2 protein and 100 μM of ATP in 20 μl of kinase reaction buffer (50 mM Tris-HCl, 10 mM MgCl2, 10 mM MnCl2, 1 mM DTT, 0.01% Brij, 1× PhosSTOP (manufactured by Roche Applied Science)), and was incubated at a temperature of 30° C. for 1 hour. After adding 30 μl of 40 mM EDTA solution to this kinase reaction solution, the kinase reaction solution was transferred to a MaxiSorp 96 well plate (manufactured by Nunc). Thereafter, phosphorylated human RIOK2 protein was allowed to adsorb onto the wells by leaving the plate in a refrigerator overnight.
The following day, the supernatant was removed, and the wells were washed three times with ELISA buffer (20 mM Tris-HCl, 150 mM NaCl, 0.2% Tween-20, 0.1% BSA). Thereafter, 100 μl of Blocking-One P (product name; manufactured by Nacalai Tesque, Inc.) was applied to the wells, and a blocking treatment was performed for 1 hour at room temperature. […] After further washing the wells, a secondary antibody, anti-rabbit IgG conjugated with horseradish peroxidase (manufactured by Jackson ImmunoResearch; 1/4000 ELISA buffer-diluted solution), was applied to the wells, and incubation was performed for 30 minutes at room temperature. After washing the wells once again, 50 μl of tetramethyl benzidine (TMB) aqueous solution (manufactured by Nacalai Tesque, Inc.) was applied to the wells, and a coloring reaction was performed for 30 minutes at room temperature. Thereafter, the coloring reaction was stopped by adding 50 μl of 2M H2SO4 to the wells. An absorptiometric level of 450 nm was measured in each well using ARVO SX (manufactured by Wallac).
For orientation: ELISA stands for enzyme-linked immunosorbent assay.

The next test has as its system FaDu. Description: Bulk cancer cells, Cell Titer-Glo 72 hours (Test Example 2). Format: cell-based. Particulars: Homo sapiens. How it is done:
(§1) Tubes of 3× drug (60 uM in 500 uL complete media) were prepared from 5 mM stock solutions in DMSO. […] To treat cells, 50 uL of drug from the dilution plate was removed and added to the cell plates. […] Cells were harvested 72 hours after drug addition using Cell Titer-Glo (Promega) and luminescence measured on a plate reader.
For orientation: ATP-based viability assays read luminescence as a measure of living cells.

The test system of a further test is ACHN. Described as above. Particulars: Homo sapiens, ACHN, 72 h. The format is cell-based. The method, then:
as §1

In the next test the test system is A549. Described as above. The format is cell-based. Particulars: Homo sapiens. The method, then:
as §1

The test system of the next test is A549 CSC. Kind of test: Cancer stem cells, Cell Titer-Glo 72 hours (Test Example 3). Format: cell-based. Particulars: Homo sapiens.
For the next test, the system named is ACHN CSC. The description is as above. Format: cell-based. Particulars: Homo sapiens, ACHN, 72 h.
In another test the test system is FaDu CSC. The description is as above. Particulars: Homo sapiens, FaDu, 72 h. Format: cell-based.

Here are results for 27 compounds from US20190241569A1, “3-(ARYL OR HETEROARYL) METHYLENEINDOLIN-2-ONE DERIVATIVES AS INHIBITORS OF CANCER STEM CELL PATHWAY KINASES FOR THE TREATMENT OF CANCER” (Boston Biomedical, Inc., priority 2013, published 2019).

T1 sequence (Q9BVS4 whole entry, the tested form may be a part): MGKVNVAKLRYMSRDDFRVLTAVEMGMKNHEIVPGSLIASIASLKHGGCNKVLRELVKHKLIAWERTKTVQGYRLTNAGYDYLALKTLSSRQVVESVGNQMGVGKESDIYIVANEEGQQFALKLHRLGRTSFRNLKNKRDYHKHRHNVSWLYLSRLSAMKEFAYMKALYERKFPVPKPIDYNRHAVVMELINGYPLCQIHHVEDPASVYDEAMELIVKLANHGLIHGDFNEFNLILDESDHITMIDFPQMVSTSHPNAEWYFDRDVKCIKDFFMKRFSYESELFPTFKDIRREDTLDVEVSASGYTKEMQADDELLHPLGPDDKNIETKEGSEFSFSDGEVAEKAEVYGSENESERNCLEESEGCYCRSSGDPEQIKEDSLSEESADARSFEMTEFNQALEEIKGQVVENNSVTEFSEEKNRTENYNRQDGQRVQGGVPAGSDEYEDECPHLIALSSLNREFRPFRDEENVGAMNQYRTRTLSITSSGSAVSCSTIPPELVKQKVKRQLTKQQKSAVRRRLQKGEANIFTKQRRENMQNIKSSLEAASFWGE

For `CCN(CC)CCNC(=O)c1c(C)[nH]c(/C=C2\C(=O)Nc3ccc(-c4ccnn4-c4ccc(F)cc4)cc32)c1C` [Example 57], on human RIOK2 protein, the inhibition at 1 µM was determined as 39% and the inhibition at 10 µM stood at 104%.

For the compound `CCN(CC)CCNC(=O)c1c(C)[nH]c(/C=C2\C(=O)Nc3ccc(-c4ccnn4-c4ccccc4F)cc32)c1C` [Example 58], at human RIOK2 protein, the inhibition at 1 µM was determined as 56% and the inhibition at 10 µM turned out to be 116%.

With `CCN(CC)CCNC(=O)c1c(C)[nH]c(/C=C2\C(=O)Nc3ccc(-c4ccnn4-c4ccc(OC)cc4)cc32)c1C` [Example 59], on human RIOK2 protein, the inhibition at 1 µM worked out at 34% and the inhibition at 10 µM was determined as 106%.

`CCN(CC)CCNC(=O)c1c(C)[nH]c(/C=C2\C(=O)Nc3ccc(-c4ccnn4-c4ccc(C(F)(F)F)cc4)cc32)c1C` [Example 60]: on human RIOK2 protein, the inhibition at 1 µM worked out at 9% and the inhibition at 10 µM came to 68%.

As for `CCN(CC)CCNC(=O)c1c(C)[nH]c(/C=C2\C(=O)Nc3ccc(-c4ccnn4-c4cccc(C)c4)cc32)c1C` [Example 61], on human RIOK2 protein, the inhibition at 1 µM worked out at 29% and the inhibition at 10 µM is 137%.

As for `CCN(CC)CCNC(=O)c1c(C)[nH]c(/C=C2\C(=O)Nc3ccc(-c4ccnn4-c4cccc(OC)c4)cc32)c1C` [Example 62], at human RIOK2 protein, the inhibition at 1 µM is 51% and the inhibition at 10 µM was 98%.

On to `CCN(CC)CCNC(=O)c1c(C)[nH]c(/C=C2\C(=O)Nc3ccc(-c4ccnn4-c4ccccn4)cc32)c1C` [Example 63], for which, on human RIOK2 protein, the inhibition at 1 µM was found to be 14% and the inhibition at 10 µM was 93%.

For the compound `CCN(CC)CCNC(=O)c1c(C)[nH]c(/C=C2\C(=O)Nc3ccc(-c4ccnn4-c4ccc(Cl)c(Cl)c4)cc32)c1C` [Example 65], on human RIOK2 protein, the inhibition at 1 µM stood at 18% and the inhibition at 10 µM was 87%.

With `CCN(CC)CCNC(=O)c1c(C)[nH]c(/C=C2\C(=O)Nc3ccc(-c4ccnn4-c4ccncc4)cc32)c1C` [Example 66], at human RIOK2 protein, the inhibition at 1 µM is -6% and the inhibition at 10 µM was 44%.

As for `CCN(CC)CCNC(=O)c1c(C)[nH]c(/C=C2\C(=O)Nc3ccc(-c4cnn(-c5cnccn5)c4)cc32)c1C` [Example 68], on human RIOK2 protein, the inhibition at 1 µM was 47% and the inhibition at 10 µM stood at 95%.

Regarding `CCN(CC)CCNC(=O)c1c(C)[nH]c(/C=C2\C(=O)Nc3ccc(-c4cnn(-c5ccncn5)c4)cc32)c1C` [Example 69], at human RIOK2 protein, the inhibition at 1 µM came out at 40% and the inhibition at 10 µM worked out at 109%.

What is called IC50 is the concentration at which inhibition is half-maximal. Low values mean inhibition by little substance, high ones a need for much substance. With `CCN(CC)CCNC(=O)c1c(C)[nH]c(/C=C2\C(=O)Nc3ccc(-c4cscc4C)cc32)c1C` [Example 206], the IC50 in the test with FaDu stood at 3.74 µM; with ACHN, 2.68 µM; in the test with A549 it was 2.01 µM; in the test on A549 CSC, 3.94 µM; in the test on ACHN CSC it was 0.48 µM; in the test with FaDu CSC, 9.1 µM.

In the case of `CCN(CC)CCNC(=O)c1c(C)[nH]c(/C=C2\C(=O)Nc3ccc(-c4cncnc4)cc32)c1C` [Example 207], the IC50 came to 4.55 µM in the test on FaDu; 3.66 µM in the test on ACHN; 7.33 µM in the test on A549; 18 µM in the test on A549 CSC; 0.55 µM in the test with ACHN CSC; 10.1 µM with FaDu CSC.

As to `CCN(CC)CCNC(=O)c1c(C)[nH]c(/C=C2\C(=O)Nc3ccc(-c4ccncc4)cc32)c1C` [Example 208], the IC50 in the test with FaDu was 6.81 µM; with ACHN, 11.6 µM; in the test with A549, 7.07 µM; with A549 CSC, 9.85 µM; in the test on ACHN CSC it was 2.14 µM; with FaDu CSC, 16.2 µM.

As for `CCN(CC)CCNC(=O)c1c(C)[nH]c(/C=C2\C(=O)Nc3ccc(-c4ccc(C(=O)O)s4)cc32)c1C` [Example 209], the IC50 worked out at 1.21 µM with FaDu; 2.04 µM in the test on ACHN; 2.2 µM with A549; 8.82 µM in the test on A549 CSC; 2.28 µM with ACHN CSC; 4.3 µM with FaDu CSC.

Turning to `Cc1cc(C)c(/C=C2\C(=O)Nc3ccc(-c4csc(-n5ccnc5)n4)cc32)[nH]1` [Example 215], the half-inhibitory concentration (IC50) was found to be 14.5 µM with FaDu; 8.84 µM in the test with ACHN; 9.31 µM in the test on A549; 35 µM with A549 CSC; 2.72 µM in the test with ACHN CSC; 37.4 µM in the test with FaDu CSC.

As for `Cc1cc(C)c(/C=C2\C(=O)Nc3ccc(-c4n[nH]c5ccccc45)cc32)[nH]1` [Example 231], the half-inhibitory concentration (IC50) with FaDu came to 4.43 µM; in the test on ACHN, 8.73 µM; in the test on A549, 6.45 µM; in the test with A549 CSC, 7.28 µM; with ACHN CSC, 3.1 µM; with FaDu CSC it was 5.33 µM.

In the case of `CCN(CC)CCNC(=O)c1c(C)[nH]c(/C=C2\C(=O)Nc3cc(-c4cnc5ccccc5n4)ccc32)c1C` [Example 251], the IC50 came to 7.45 µM in the test on FaDu; 10.9 µM in the test on ACHN; 7.07 µM with A549; 42.6 µM in the test on A549 CSC; 6.97 µM with ACHN CSC; 2.24 µM in the test on FaDu CSC.

In the case of `CCN(CC)CCNC(=O)c1c(C)[nH]c(/C=C2\C(=O)Nc3cc(-c4csc(-n5cccn5)n4)ccc32)c1C` [Example 254], the IC50 stood at 5.3 µM in the test on FaDu; 2.6 µM in the test on ACHN; 5.8 µM with A549; 2.93 µM in the test with A549 CSC; 0.17 µM in the test with ACHN CSC; 0.78 µM in the test on FaDu CSC.

For the compound `CCN(CC)CCNC(=O)c1c(C)[nH]c(/C=C2\C(=O)Nc3cc(-c4cccc5ncccc45)ccc32)c1C` [Example 258], the IC50 with FaDu came to 4.83 µM; in the test on ACHN, 2.66 µM; in the test on A549, 2.88 µM; in the test with A549 CSC it was 8.61 µM; in the test on ACHN CSC it was 0.42 µM; in the test with FaDu CSC, 2.64 µM.

As for `Cc1cc(C)c(/C=C2\C(=O)Nc3ccc(-c4ccc(O)cc4C)cc32)[nH]1` [Example 261], the IC50 was found to be 14.7 µM in the test with FaDu; 14.9 µM in the test on ACHN; 12.5 µM in the test on A549; 36.8 µM in the test with A549 CSC; 21.1 µM in the test on ACHN CSC; 14.4 µM with FaDu CSC.

For the compound `CCN(CC)CCNC(=O)c1c(C)[nH]c(/C=C2\C(=O)Nc3cc(-c4ccc(C(=O)c5ccccc5)cc4)ccc32)c1C` [Example 264], the IC50 came out at 4.46 µM in the test on FaDu; 4.11 µM in the test with ACHN; 3.65 µM in the test with A549; 3.16 µM in the test with A549 CSC; 1.63 µM with ACHN CSC; 1.46 µM in the test with FaDu CSC.

With `CCN(CC)CCNC(=O)c1c(C)[nH]c(/C=C2\C(=O)Nc3cc(-c4ccc(O)cc4C)ccc32)c1C` [Example 265], the IC50 in the test with FaDu was 2.14 µM; in the test with ACHN it was 2.53 µM; in the test with A549 it was 2.76 µM; in the test on A549 CSC, 7.55 µM; in the test on ACHN CSC, 2.17 µM; in the test on FaDu CSC it was 1.54 µM.

`CCN(CC)CCNC(=O)c1c(C)[nH]c(/C=C2\C(=O)Nc3ccc(-c4ccc(C=O)cc4)cc32)c1C` [Example 266]: the half-maximal inhibitory concentration (IC50) with FaDu is 12.1 µM; in the test with ACHN, 2.81 µM; in the test with A549, 10.6 µM; in the test on A549 CSC, 5.84 µM; with ACHN CSC, 4.34 µM; with FaDu CSC, 7.51 µM.

As to `CCN(CC)CCNC(=O)c1c(C)[nH]c(/C=C2\C(=O)Nc3ccc(-c4ccc(OC)cc4C)cc32)c1C` [Example 267], the half-inhibitory concentration (IC50) in the test with FaDu was found to be 2.31 µM; in the test on ACHN, 2.26 µM; with A549 it was 1.74 µM; in the test with A549 CSC it was 4.61 µM; in the test on ACHN CSC, 1.42 µM; in the test with FaDu CSC, 1.4 µM.

For the compound `CCN(CC)CCNC(=O)c1c(C)[nH]c(/C=C2\C(=O)Nc3ccc(-c4ccc(C#N)c(F)c4)cc32)c1C` [Example 269], the half-inhibitory concentration (IC50) with FaDu is 14 µM; with ACHN it was 13.3 µM; in the test on A549 it was 14.5 µM; in the test with A549 CSC, 12 µM; in the test with ACHN CSC, 1.71 µM; in the test on FaDu CSC, 3.48 µM.

As for `CCN(CC)CCNC(=O)c1c(C)[nH]c(/C=C2\C(=O)Nc3ccc(-c4ccc5c(c4)CC(=O)N5)cc32)c1C` [Example 270], the IC50 with FaDu amounted to 25.4 µM; in the test with ACHN, 18.9 µM; in the test with A549, 19.7 µM; in the test on A549 CSC it was 29.2 µM; in the test with ACHN CSC it was 20.8 µM; with FaDu CSC, 15.5 µM.
